Earlier results as cited in patent US20220370506A1, “AUGMENTATION OF FIBROBLAST MEDIATED REGENERATION OF INTRAVERTEBRAL DISCS” (FIGENE, LLC, priority 2019, published 2022).

Test system: patients with chronic lumbosacral radiculopathy or discogenic low back pain
[1] = authors' conclusion, single low dose intradiscal

Substance: etanercept
- pain scores between or within groups (1-month follow-up, 0.1, 0.25, 0.5, 0.75, 1.0, or 1.5 mg intradiscally in each pain-generating disc, any dose range or subgroup): no differences
- disability scores between or within groups (1-month follow-up, 0.1-1.5 mg intradiscally, any dose range or subgroup): no differences
- effectiveness as treatment for chronic radicular or discogenic low back pain [1]: does not seem to be an effective treatment
- serious side effects [1]: no serious side effects were observed
- complications (intradiscal 0.1-1.5 mg, 36 patients): No complications were reported
- preprocedure versus postprocedure leukocyte counts (intradiscal 0.1-1.5 mg, 1-month follow-up): no differences were noted
